Values of other authors in US7718385B2, “Bioactivation of alkylating agents for cancer treatment” (priority 2003, dated 2010).

What was measured:
NCI-H460 = conditions: NCI-H460, Non-Small Cell Lung; cited from earlier work
A549/ATCC = conditions: cited from earlier work
EKVX = conditions: cited from earlier work
NCI-H23 = conditions: NCI-H23, Non-Small Cell Lung, cited from earlier work
COLO 205 = conditions: COLO 205, Colon, cited from earlier work
HCT-116 = conditions: HCT-116, Colon, cited from earlier work
KM12 = conditions: KM12, Colon, cited from earlier work
SF-295 = conditions: SF-295, Central Nervous System, cited from earlier work
SF-539 = conditions: SF-539, Central Nervous System, cited from earlier work
SNB-19 = conditions: SNB-19, Central Nervous System, cited from earlier work
U251 = conditions: U251, Central Nervous System, cited from earlier work
LOX IMVI = conditions: cited from earlier work
MALME-3M = conditions: cited from earlier work
IGROVI = conditions: cited from earlier work
OVCAR-4 = conditions: OVCAR-4, Ovarian, cited from earlier work
A498 = conditions: A498, Renal, cited from earlier work
ACHN = conditions: Renal; cited from earlier work
TK-10 = conditions: TK-10, Renal, cited from earlier work
PC-3 = conditions: PC-3, Prostate, cited from earlier work
MCF7 = conditions: MCF7, Breast, cited from earlier work
MDA-MB 435 = conditions: MDA-MB 435, Breast, cited from earlier work
[1] = read-out: LC50, Non-Small Cell Lung

For `CC1=C(CO)C2=C(C)C3(CC3)[C@@](C)(O)C(=O)C2=C1` [Irofulven, 6-hydroxymethylacylfulvene], the GI50 (NCI-H460) is listed as 50.1 nM, the TGI (NCI-H460) is listed as 2.51E−07 and the “log(GI50)” value (NCI-H460) is listed as −7.3. For the same compound, the “log(TGI)” value (NCI-H460) was −6.6, the GI50 (A549/ATCC; Non-Small Cell Lung) was 126 nM and the TGI (A549/ATCC; Non-Small Cell Lung) was 1.58E−06. The “log(GI50)” value (A549/ATCC; Non-Small Cell Lung) was −6.9, the “log(TGI)” value (A549/ATCC; Non-Small Cell Lung) was −5.8 and the CC50 (A549/ATCC; [1]) was ≥ 100000 nM. The GI50 (EKVX; Non-Small Cell Lung) was 200 nM, the TGI (EKVX; Non-Small Cell Lung) was 5.01E−07 and the “log(GI50)” value (EKVX; Non-Small Cell Lung) was −6.7. For the same compound, the “log(LC50)” value (EKVX; Non-Small Cell Lung) was −5.4, the “log(TGI)” value (EKVX; Non-Small Cell Lung) was −6.3 and the CC50 (EKVX; [1]) was 3980 nM. The GI50 (NCI-H23) was 79.4 nM, the TGI (NCI-H23) was 3.16E−07 and the “log(GI50)” value (NCI-H23) was −7.1. For the same compound, the “log(LC50)” value (NCI-H23) was −6.1, the “log(TGI)” value (NCI-H23) was −6.5 and the CC50 (NCI-H23; read-out: LC50) was 794 nM. The GI50 (COLO 205) was 158 nM, the TGI (COLO 205) was 5.01E−07 and the “log(GI50)” value (COLO 205) was −6.8. For the same compound, the “log(LC50)” value (COLO 205) was −6.2, the “log(TGI)” value (COLO 205) was −6.3 and the CC50 (COLO 205; read-out: LC50) was 631 nM. For the same compound, the GI50 (HCT-116) was 200 nM, the TGI (HCT-116) was 5.01E−07 and the “log(GI50)” value (HCT-116) was −6.7. For the same compound, the “log(LC50)” value (HCT-116) was −4.5, the “log(TGI)” value (HCT-116) was −6.3 and the CC50 (HCT-116; read-out: LC50) was 31600 nM. For the same compound, the GI50 (KM12) was 631 nM, the TGI (KM12) was 2.51E−06 and the “log(GI50)” value (KM12) was −6.2. The “log(LC50)” value (KM12) was −4.9, the “log(TGI)” value (KM12) was −5.6 and the CC50 (KM12; read-out: LC50) was 12600 nM. For the same compound, the GI50 (SF-295) was 316 nM, the TGI (SF-295) was 6.31E−06 and the “log(GI50)” value (SF-295) was −6.5. The “log(LC50)” value (SF-295) was −5, the “log(TGI)” value (SF-295) was −5.2 and the CC50 (SF-295; read-out: LC50) was 10000 nM. For the same compound, the GI50 (SF-539) was 158 nM, the TGI (SF-539) was 5.01E−07 and the “log(GI50)” value (SF-539) was −6.8. The “log(LC50)” value (SF-539) was −6.2, the “log(TGI)” value (SF-539) was −6.3 and the CC50 (SF-539; read-out: LC50) was 631 nM. For the same compound, the GI50 (SNB-19) was 316 nM, the TGI (SNB-19) was 1.00E−05 and the “log(GI50)” value (SNB-19) was −6.5. For the same compound, the “log(LC50)” value (SNB-19) was −4.2, the “log(TGI)” value (SNB-19) was −5 and the CC50 (SNB-19; read-out: LC50) was 63100 nM. The GI50 (U251) was 316 nM, the TGI (U251) was 6.31E−06 and the “log(GI50)” value (U251) was −6.5. The “log(LC50)” value (U251) was −4.3, the “log(TGI)” value (U251) was −5.2 and the CC50 (U251; read-out: LC50) was 50100 nM. The GI50 (LOX IMVI; Melanoma) was 631 nM, the TGI (LOX IMVI; Melanoma) was 3.16E−06 and the “log(GI50)” value (LOX IMVI; Melanoma) was −6.2. For the same compound, the “log(LC50)” value (LOX IMVI; Melanoma) was −4.4, the “log(TGI)” value (LOX IMVI; Melanoma) was −5.5 and the CC50 (LOX IMVI; read-out: LC50, Melanoma) was 39800 nM. The GI50 (MALME-3M; Melanoma) was 200 nM, the TGI (MALME-3M; Melanoma) was 5.01E−07 and the “log(GI50)” value (MALME-3M; Melanoma) was −6.7. The “log(LC50)” value (MALME-3M; Melanoma) was −5.6, the “log(TGI)” value (MALME-3M; Melanoma) was −6.3 and the CC50 (MALME-3M; read-out: LC50, Melanoma) was 2510 nM. For the same compound, the GI50 (IGROVI; Ovarian) was 158 nM, the TGI (IGROVI; Ovarian) was 5.01E−07 and the “log(GI50)” value (IGROVI; Ovarian) was −6.8. For the same compound, the “log(LC50)” value (IGROVI; Ovarian) was −5.2, the “log(TGI)” value (IGROVI; Ovarian) was −6.3 and the CC50 (IGROVI; read-out: LC50, Ovarian) was 6310 nM. The GI50 (OVCAR-4) was 251 nM, the TGI (OVCAR-4) was 6.31E−07 and the “log(GI50)” value (OVCAR-4) was −6.6. For the same compound, the “log(LC50)” value (OVCAR-4) was −4.6, the “log(TGI)” value (OVCAR-4) was −6.2 and the CC50 (OVCAR-4; read-out: LC50) was 25100 nM. The GI50 (A498) was 200 nM, the TGI (A498) was 5.01E−07 and the “log(GI50)” value (A498) was −6.7. The “log(LC50)” value (A498) was −5.7, the “log(TGI)” value (A498) was −6.3 and the CC50 (A498; read-out: LC50) was 2000 nM. For the same compound, the GI50 (ACHN) was 251 nM, the TGI (ACHN) was 1.00E−06 and the “log(GI50)” value (ACHN) was −6.6. For the same compound, the “log(TGI)” value (ACHN) was −6, the GI50 (TK-10) was 251 nM and the TGI (TK-10) was 1.26E−06. The “log(GI50)” value (TK-10) was −6.6, the “log(TGI)” value (TK-10) was −5.9 and the CC50 (TK-10; read-out: LC50) was ≥ 100000 nM. The GI50 (PC-3) was 251 nM, the TGI (PC-3) was 1.26E−06 and the “log(GI50)” value (PC-3) was −6.6. The “log(LC50)” value (PC-3) was −4.5, the “log(TGI)” value (PC-3) was −5.9 and the CC50 (PC-3; read-out: LC50) was 31600 nM. For the same compound, the GI50 (MCF7) was 251 nM, the TGI (MCF7) was 2.00E−06 and the “log(GI50)” value (MCF7) was −6.6. For the same compound, the “log(TGI)” value (MCF7) was −5.7, the CC50 (MCF7; read-out: LC50) was ≥ 100000 nM and the GI50 (MDA-MB 435) was 1580 nM. For the same compound, the TGI (MDA-MB 435) was 6.31E−06, the “log(GI50)” value (MDA-MB 435) was −5.8 and the “log(LC50)” value (MDA-MB 435) was −4.4. For the same compound, the “log(TGI)” value (MDA-MB 435) was −5.2 and the CC50 (MDA-MB 435; read-out: LC50) was 39800 nM.
